Measured values taken from patent publication US20150299233A1, “COMPOSITIONS AND METHODS COMPRISING RHENIUM FOR THE TREATMENT OF CANCERS” (Massachusetts Institute of Technology, priority 2014, published 2015).
Read-outs that look alike come from different tables or passages of the source.

Assays:
[1] = system: MEFs PARP-1+/+ and MEFs PARP-1−/− cells; assay: Cytotoxicity in MEFs PARP-1+/+ versus PARP-1-/- cells; assay type: cell-based, mouse; conditions: 72 h, FIG. 3A
Description: (PARP-1). PARP-1 is a nuclear enzyme that is involved in DNA repair and transcriptional regulation. DNA damage can trigger PARP-1 activity, resulting in ATP and NAD depletion and bioenergetics- mediated cell death. To determine whether PARP-1 activity is a factor in 1- and 2-mediated cell death, cytotoxicity assays were conducted with wild-type mouse embryonic fibroblast cells (MEFs PARP-1+/+) and the corresponding PARP-1-null cells (MEFs PARP-1−/−). […] Recently, p53 has also been reported to play a role in necroptosis. p53 induces cathepsin Q, a lysosomal protease that cooperates with ROS to execute necrosis. To investigate whether p53 might play a role in 1- and 2-mediated necroptosis, cytotoxicity studies were conducted with HCT116 p53^+/+ nd HCT116 p53^−/− cells.
Cell Cycle Analysis. To gain a more complete understanding of the cellular response evoked, DNA-flow cytometric studies were conducted to determine the effect of 1 and 2 on the cell cycle. A549 cells were treated with 1 or 2 (2 μM), and the cell cycle was determined over the course of 72 h. […] Upon further incubation (72 h), large populations of cell debris were detected (32%), indicative of cell death. […]
Cytotoxicity MTT Assay. […] The absorbance of the solution wells was read at 550 nm. Absorbance values were normalized to DMSO-containing control wells and plotted as the concentration of test compound versus % cell viability. […]

[2] = system: confluent A549 cells; assay: MTT cytotoxicity assay, confluent A549 cells; assay type: cell-based, human; conditions: for IC50: Table 2, confluent cells, 72 h exposure, read-out: IC50 A549 (confluent) lung carcinoma; for IC50 higher in confluent A549 cells than in A549 cells in log phase growth: confluent versus log phase
[3] = system: MRC-5; assay: MTT cytotoxicity assay, MRC-5 normal lung fibroblasts; assay type: cell-based, human; conditions: for selectivity over normal fibroblast cells (IC50 higher in normal fibroblasts than in cancer cells): cancer cells versus normal fibroblast cells
Description: In vitro toxicity of the rhenium (v) oxo complexes, 1 and 2 towards a panel of human cell lines was determined using the colorimetic MTT [[3-(4,5-dimethylithiazol-2-yl)-2,5-diphenyltetrazolium bromide] assay.
The in vitro effect of rhenium(V) oxo complexes 1 and 2 toward a panel of human cell lines was determined by the colorimetric MTT [3-(4,5-dimethylthiazol-2-yl)-2,5-diphenyltetrazolium bromide] assay. […] The IC50 values, or concentration required to induce 50% cell death, were derived from dose—response curves and are summarized in Table 1.
Cells (2×10^3 cells/well) were seeded in a 96-well plate. […] 1 and 2 were prepared as 10 mM solutions in DMSO and diluted using media. The final concentration of DMSO in each well was 0.5%, and this amount was also present in the untreated control. After 72 h, the medium was removed, 200 μL of a 0.4 mg/mL solution of MTT in DMEM, RPMI, or McCoy's 5A was added, and the plate was incubated for an additional 1-2 h. The DMEM/MTT, RPMI/MTT, or McCoy's 5A/MTT mixture was aspirated, and 200 μL of DMSO was added to dissolve the resulting purple formazan crystals. The absorbance of the solution wells was read at 550 nm. Absorbance values were normalized to DMSO-containing control wells and plotted as the concentration of test compound versus % cell viability. IC50 values were interpolated from the resulting dose-dependent curves. The reported IC50 values are the average from at least three independent experiments, each of which consisted of six replicates per concentration level.

[4] = system: PC-3; assay: Cytotoxicity in the presence of necrostatin-1, PC-3 cells; assay type: cell-based, human; conditions: necrostatin-1 60 μM, t test p<0.05
Description: In order to determine the cell-killing mechanism of 1 and 2, cytotoxicity studies in the presence of apoptosis and necrosis inhibitors were conducted. […] The possibility that 1 and 2 induce necroptosis was then investigated. Necroptosis is a well-regulated mode of cell death that is different from unregulated necrosis and apoptosis. Unlike unregulated necrosis, which can be induced by H2O2 or heat, necroptosis generally involved the interaction of protein kinases, RIP1 and RIP3, to initiate cell disintegration. This process can be blocked by necrostatin-1, a potent RIP1 kinase inhibitor. To determine whether 1 and 2 induced necroptosis and/or uncontrolled necrosis, cytotoxicity studies were conducted in the presence of necrostatin-1 (60 μM) and IM-54 (10 μM), an inhibitor of H2O2-induced necrosis. […] Therefore, 1- and 2-induced cell death relies on RIP1-RIP3 complex formation and not on the expression levels of the individual protein kinases. RIP1 can also form a cytosolic complex with Fas-associated death domain (FADD) and caspase 8, known as a ripoptosome, to initiate apoptosis (through caspase 8 cleavage).
Cytotoxicity MTT Assay. […] Cells (2×10^3 cells/well) were seeded in a 96-well plate. […] The absorbance of the solution wells was read at 550 nm. Absorbance values were normalized to DMSO-containing control wells and plotted as the concentration of test compound versus % cell viability. […]

[5] = system: A549 cells; assay: Intracellular ROS assay (DCFH-DA, flow cytometry); assay type: cell-based, human; conditions: for induced ROS production in the presence of necrostatin-1: 20 μM for 12 h with necrostatin-1 60 μM; for intracellular ROS versus untreated control cells: 1, 2, shikonin 20 μM for 12 h, H2O2 1 mM for 1 h
Description: Characterization of Necroptotic Features. Having established that necrosome formation is a determinant of 1 and 2 activity, additional studies were performed to understand the cascade of events leading from necrosome formation to cell death. Necrosomes generate abnormally high levels of mitochondrial ROS, leading to ATP depletion and eventual degradation of the mitochondrial membrane potential. With this fact in mind, intracellular ROS production was quantified by flow cytometry using 6-carboxy-2′,7′-dichlorodihydrofluorescein diacetate (DCFH-DA), a well-established ROS indicator.
In FIG. 2: (A) Representative histograms displaying the green fluorescence emitted by DCFH-DA-stained A549 cells (i) and A549 cells treated with 1(20 μM for 12 h) (iii) or 1 (20 μM for 12 h) with nectrostatin-1 (60 μM for 12 h) (ii). (B) Representative histograms displaying the green fluorescence emitted by DCFH-DA-stained A549 cells (i) and A549 cells treated with 2 (20 μM for 12 h) (iii) or 2 (20 μM for 12 h) with nectrostatin-1 (60 μM for 12 h) (ii). (C) Representative histograms displaying the green fluorescence emitted by DCFH-DA-stained A549 cells (i) and A549 cells treated withH2O2 (1mM for 1 h) (iii). (D) Representative histograms displaying the green fluorescence emitted by DCFH-DA-stained A549 cells (i) and A549 cells treated with shikonin (20 μM for 12 h) (iii).
Intracellular ROS Assay. Untreated and treated A549 cells (1.5×10^6 cells/well) grown in six-well plates were incubated with 6-carboxy-2′,7′-dichlorodihydrofluorescein diacetate (20 μM) for 30 min. The cells were then washed with PBS (1 mL x 3), harvested, and analyzed by using a FACSCalibur-HTS flow cytometer (BD Biosciences) (20 000 events per sample were acquired). The FL1 channel was used to assess intracellular ROS levels. Cell populations were analyzed using the FlowJo software (Tree Star).

[6] = Table 1, 72 h exposure, ± standard deviation, read-out: IC50 MRC-5 lung fibroblast
[7] = Table A, average of three independent determinations, read-out: IC50 MRC5 (lung normal)

Row | SMILES | IC50 in MEFs PARP-1+/+ compared with MEFs PARP-1−/− [1] | IC50 [2] | IC50 higher in confluent A549 cells than in A549 cells in log phase growth [2] | IC50 [3, 6] | IC50 [3, 7] | selectivity over normal fibroblast cells (IC50 higher in normal fibroblasts than in cancer cells) [3] | effect of co-incubation with necrostatin-1 on toxicity, PC-3 [4] | induced ROS production in the presence of necrostatin-1 [5] | intracellular ROS versus untreated control cells [5]
1 | C[O][Re](=[O])([Cl])[Cl].c1ccc(-c2ccnc3c2ccc2c(-c4ccccc4)ccnc23)cc1 [Compound 1, [ReO(OMe)(4,7-diphenyl-1,10-phenanthroline)-Cl2]] | similar | 8610 ± 749 nM | 40 fold | 1350 ± 228 nM | 1350 ± 228 nM | about 10 fold | markedly decreased the toxicity | attenuated | markedly higher levels of ROS
2 | C[O][Re-2]1(=[O])([Cl])([Cl])[n+]2cc(C)c(C)c3ccc4c(C)c(C)c[n+]1c4c32 [Compound 2, [ReO(OMe)(3,4,7,8-tetramethyl-1,10-phenanthroline)Cl2]] | similar | 5240 ± 1990 nM | 40 fold | 709 ± 76 nM | 709 ± 76 nM | about 10 fold | markedly decreased the toxicity | attenuated | markedly higher levels of ROS
